According to ChEMBL document CHEMBL4765467, “Improving Thermodynamic Stability and Anticoagulant Activity of a Thrombin Binding Aptamer by Incorporation of 8-trifluoromethyl-2'-deoxyguanosine” (J Med Chem, 2021):
The source made the active and inactive calls. The calls are words filed in the database; no cut-off is given here.

Experiments:
[1] = tested on: Plasma; assay: Anticoagulant activity in human plasma assessed prothrombin time in presence of 1.5 fold complementary sequence of TBA; format: functional, cell-free
[2] = Stability in 50% human plasma assessed as compound degradation at 50 uM measured within 3 hrs by PAGE analysis relative to TBA; format: ADME, cell-free
[3] = tested on: Plasma; assay: Anticoagulant activity in human plasma assessed prothrombin time at 0.25 to 1 uM; format: functional; details: dose 0.25-1 µM
[4] = tested on: Plasma; assay: Anticoagulant activity in human plasma assessed prothrombin time in presence of complementary sequence of TBA; format: functional, cell-free
[5] = Thermodynamic stability assessed as change in melting temperature by CD spectroscopy relative to TBA; format: physicochemical
[6] = Stability in 50% human plasma assessed as compound degradation at 50 uM measured within 3 hrs by PAGE analysis; format: ADME, cell-free
[7] = tested on: Rattus norvegicus; assay: Anticoagulant activity in ferric chloride-induced Sprague-Dawley rat carotid thrombosis model assessed as reduction in thrombus formation by measuring thrombus area at […], iv by H and E staining based analysis; format: functional; set-up: scale not given: the % may be the effect or the level left

SMILES | Activity [1] | Stabilty [2] | PT [3] [s] | Activity [4] | deltaTm [5] [°C] | Stabilty [6] | Activity [7] [%]
Cc1cn([C@H]2C[C@H](OP(=O)(O)OC[C@H]3O[C@@H](n4c(C(F)(F)F)nc5c(=O)[nH]c(N)nc54)C[C@@H]3OP(=O)(O)OC[C@H]3O[C@@H](n4cnc5c(=O)[nH]c(N)nc54)C[C@@H]3OP(=O)(O)OC[C@H]3O[C@@H](n4cc(C)c(=O)[nH]c4=O)C[C@@H]3OP(=O)(O)OC[C@H]3O[C@@H](n4cnc5c(=O)[nH]c(N)nc54)C[C@@H]3OP(=O)(O)OC[C@H]3O[C@@H](n4cc(C)c(=O)[nH]c4=O)C[C@@H]3OP(=O)(O)OC[C@H]3O[C@@H](n4cnc5c(=O)[nH]c(N)nc54)C[C@@H]3OP(=O)(O)OC[C@H]3O[C@@H](n4cnc5c(=O)[nH]c(N)nc54)C[C@@H]3OP(=O)(O)OC[C@H]3O[C@@H](n4cc(C)c(=O)[nH]c4=O)C[C@@H]3OP(=O)(O)OC[C@H]3O[C@@H](n4cc(C)c(=O)[nH]c4=O)C[C@@H]3OP(=O)(O)OC[C@H]3O[C@@H](n4c(C(F)(F)F)nc5c(=O)[nH]c(N)nc54)C[C@@H]3OP(=O)(O)OC[C@H]3O[C@@H](n4cnc5c(=O)[nH]c(N)nc54)C[C@@H]3O)[C@@H](COP(=O)(O)O[C@H]3C[C@H](n4cc(C)c(=O)[nH]c4=O)O[C@@H]3COP(=O)(O)O[C@H]3C[C@H](n4cnc5c(=O)[nH]c(N)nc54)O[C@@H]3COP(=O)(O)O[C@H]3C[C@H](n4cnc5c(=O)[nH]c(N)nc54)O[C@@H]3COP(=O)(O)O)O2)c(=O)[nH]c1=O | inactive | Stable | 26.7 | inactive | 16.8 | Unstable | –
Cc1cn([C@H]2C[C@H](OP(=O)(O)OC[C@H]3O[C@@H](n4cnc5c(=O)[nH]c(N)nc54)C[C@@H]3OP(=O)(O)OC[C@H]3O[C@@H](n4cnc5c(=O)[nH]c(N)nc54)C[C@@H]3OP(=O)(O)OC[C@H]3O[C@@H](n4cc(C)c(=O)[nH]c4=O)C[C@@H]3OP(=O)(O)OC[C@H]3O[C@@H](n4cnc5c(=O)[nH]c(N)nc54)C[C@@H]3OP(=O)(O)OC[C@H]3O[C@@H](n4cc(C)c(=O)[nH]c4=O)C[C@@H]3OP(=O)(O)OC[C@H]3O[C@@H](n4cnc5c(=O)[nH]c(N)nc54)C[C@@H]3OP(=O)(O)OC[C@H]3O[C@@H](n4cnc5c(=O)[nH]c(N)nc54)C[C@@H]3OP(=O)(O)OC[C@H]3O[C@@H](n4cc(C)c(=O)[nH]c4=O)C[C@@H]3OP(=O)(O)OC[C@H]3O[C@@H](n4cc(C)c(=O)[nH]c4=O)C[C@@H]3OP(=O)(O)OC[C@H]3O[C@@H](n4c(C(F)(F)F)nc5c(=O)[nH]c(N)nc54)C[C@@H]3OP(=O)(O)OC[C@H]3O[C@@H](n4cnc5c(=O)[nH]c(N)nc54)C[C@@H]3O)[C@@H](COP(=O)(O)O[C@H]3C[C@H](n4cc(C)c(=O)[nH]c4=O)O[C@@H]3COP(=O)(O)O[C@H]3C[C@H](n4cnc5c(=O)[nH]c(N)nc54)O[C@@H]3COP(=O)(O)O[C@H]3C[C@H](n4cnc5c(=O)[nH]c(N)nc54)O[C@@H]3COP(=O)(O)O)O2)c(=O)[nH]c1=O | inactive | – | 29.1 | inactive | 7.6 | Unstable | 60
